Measurements: PubChem BioAssay (NCI)
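Briefly, cells in 96-well plates were exposed to five compound concentrations for 48 h, and endpoints were estimated by linear interpolation. TGI is the concentration that stops growth completely.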

Legend:
Experiment in all cases: DTP human tumour cell line panel, 48 h
786-0 renal = tested on: 786-0 renal
A549 NSCLC = tested on: A549 NSCLC
ACHN renal = tested on: ACHN renal
BT-549 breast = tested on: BT-549 breast
CAKI-1 renal = tested on: CAKI-1 renal
CCRF-CEM leukemia = tested on: CCRF-CEM leukemia
COLO 205 colon = tested on: COLO 205 colon
DLD-1 colon = tested on: DLD-1 colon
DMS 273 small cell lung = tested on: DMS 273 small cell lung
DU-145 prostate = tested on: DU-145 prostate
EKVX NSCLC = tested on: EKVX NSCLC
HCC-2998 colon = tested on: HCC-2998 colon
HCT-116 colon = tested on: HCT-116 colon
HCT-15 colon = tested on: HCT-15 colon
HL-60(TB) leukemia = tested on: HL-60(TB) leukemia
HOP-62 NSCLC = tested on: HOP-62 NSCLC
HOP-92 NSCLC = tested on: HOP-92 NSCLC
HS 578T breast = tested on: HS 578T breast
HT29 colon = tested on: HT29 colon
IGROV1 ovarian = tested on: IGROV1 ovarian
K-562 leukemia = tested on: K-562 leukemia
KM12 colon = tested on: KM12 colon
KM20L2 colon = tested on: KM20L2 colon
LOX IMVI melanoma = tested on: LOX IMVI melanoma
LXFL 529 NSCLC = tested on: LXFL 529 NSCLC
M14 melanoma = tested on: M14 melanoma
M19-MEL melanoma = tested on: M19-MEL melanoma
MALME-3M melanoma = tested on: MALME-3M melanoma
MCF7 breast = tested on: MCF7 breast
MDA-MB-231 breast = tested on: MDA-MB-231 breast
MDA-MB-435 = tested on: MDA-MB-435
MDA-N = tested on: MDA-N
MOLT-4 leukemia = tested on: MOLT-4 leukemia
NCI-H23 lung = tested on: NCI-H23 lung
NCI-H460 lung = tested on: NCI-H460 lung
NCI-H522 lung = tested on: NCI-H522 lung
NCI/ADR-RES ovarian = tested on: NCI/ADR-RES ovarian
OVCAR-3 ovarian = tested on: OVCAR-3 ovarian
OVCAR-4 ovarian = tested on: OVCAR-4 ovarian
OVCAR-5 ovarian = tested on: OVCAR-5 ovarian
OVCAR-8 ovarian = tested on: OVCAR-8 ovarian
PC-3 prostate = tested on: PC-3 prostate
RPMI-8226 leukemia = tested on: RPMI-8226 leukemia
SF-268 CNS = tested on: SF-268 CNS
SF-295 CNS = tested on: SF-295 CNS
SF-539 CNS = tested on: SF-539 CNS
SK-MEL-2 melanoma = tested on: SK-MEL-2 melanoma
SK-MEL-28 melanoma = tested on: SK-MEL-28 melanoma
SK-MEL-5 melanoma = tested on: SK-MEL-5 melanoma
SK-OV-3 ovarian = tested on: SK-OV-3 ovarian
SN12C renal = tested on: SN12C renal
SNB-19 CNS = tested on: SNB-19 CNS
SNB-78 CNS = tested on: SNB-78 CNS
SR leukemia = tested on: SR leukemia
SW-620 colon = tested on: SW-620 colon
T-47D breast = tested on: T-47D breast
TK-10 renal = tested on: TK-10 renal
U251 CNS = tested on: U251 CNS
UACC-257 melanoma = tested on: UACC-257 melanoma
UACC-62 melanoma = tested on: UACC-62 melanoma
UO-31 renal = tested on: UO-31 renal
A498 renal = tested on: A498 renal
NCI-H226 lung = tested on: NCI-H226 lung
RXF 393 renal = tested on: RXF 393 renal
SNB-75 CNS = tested on: SNB-75 CNS

Cc1ccc(C(=O)OC(C)C)cc1N=NN(C)C
TGI (786-0 renal): > 100 µM | TGI (A549 NSCLC): > 100 µM | TGI (ACHN renal): > 100 µM | TGI (BT-549 breast): > 100 µM | TGI (CAKI-1 renal): > 100 µM | TGI (CCRF-CEM leukemia): > 100 µM | TGI (COLO 205 colon): > 100 µM | TGI (DLD-1 colon): > 100 µM | TGI (DMS 273 small cell lung): > 100 µM | TGI (DU-145 prostate): > 100 µM | TGI (EKVX NSCLC): > 100 µM | TGI (HCC-2998 colon): > 100 µM | TGI (HCT-116 colon): > 100 µM | TGI (HCT-15 colon): > 100 µM | TGI (HL-60(TB) leukemia): > 100 µM | TGI (HOP-62 NSCLC): > 100 µM | TGI (HOP-92 NSCLC): > 100 µM | TGI (HS 578T breast): > 100 µM | TGI (HT29 colon): > 100 µM | TGI (IGROV1 ovarian): > 100 µM | TGI (K-562 leukemia): > 100 µM | TGI (KM12 colon): > 100 µM | TGI (KM20L2 colon): > 100 µM | TGI (LOX IMVI melanoma): > 100 µM | TGI (LXFL 529 NSCLC): > 100 µM | TGI (M14 melanoma): > 100 µM | TGI (M19-MEL melanoma): > 100 µM | TGI (MALME-3M melanoma): > 100 µM | TGI (MCF7 breast): > 100 µM | TGI (MDA-MB-231 breast): > 100 µM | TGI (MDA-MB-435): > 100 µM | TGI (MDA-N): > 100 µM | TGI (MOLT-4 leukemia): > 100 µM | TGI (NCI-H23 lung): > 100 µM | TGI (NCI-H460 lung): > 100 µM | TGI (NCI-H522 lung): > 100 µM | TGI (NCI/ADR-RES ovarian): > 100 µM | TGI (OVCAR-3 ovarian): > 100 µM | TGI (OVCAR-4 ovarian): > 100 µM | TGI (OVCAR-5 ovarian): > 100 µM | TGI (OVCAR-8 ovarian): > 100 µM | TGI (PC-3 prostate): > 100 µM | TGI (RPMI-8226 leukemia): > 100 µM | TGI (SF-268 CNS): > 100 µM | TGI (SF-295 CNS): > 100 µM | TGI (SF-539 CNS): > 100 µM | TGI (SK-MEL-2 melanoma): > 100 µM | TGI (SK-MEL-28 melanoma): > 100 µM | TGI (SK-MEL-5 melanoma): > 100 µM | TGI (SK-OV-3 ovarian): > 100 µM | TGI (SN12C renal): > 100 µM | TGI (SNB-19 CNS): > 100 µM | TGI (SNB-78 CNS): > 100 µM | TGI (SR leukemia): > 100 µM | TGI (SW-620 colon): > 100 µM | TGI (T-47D breast): > 100 µM | TGI (TK-10 renal): > 100 µM | TGI (U251 CNS): > 100 µM | TGI (UACC-257 melanoma): 81.9 µM | TGI (UACC-62 melanoma): > 100 µM | TGI (UO-31 renal): > 100 µM

CCOC(=O)NC(Nc1ccc(F)c(F)c1)(C(=O)OCC)C(F)(F)F (configuration not stated)
TGI (786-0 renal): > 100 µM | TGI (A498 renal): > 100 µM | TGI (A549 NSCLC): > 100 µM | TGI (ACHN renal): > 100 µM | TGI (BT-549 breast): > 100 µM | TGI (CAKI-1 renal): > 100 µM | TGI (CCRF-CEM leukemia): > 100 µM | TGI (COLO 205 colon): > 100 µM | TGI (DU-145 prostate): > 100 µM | TGI (EKVX NSCLC): > 100 µM | TGI (HCC-2998 colon): > 100 µM | TGI (HCT-116 colon): > 100 µM | TGI (HCT-15 colon): > 100 µM | TGI (HL-60(TB) leukemia): > 100 µM | TGI (HOP-62 NSCLC): > 100 µM | TGI (HOP-92 NSCLC): > 100 µM | TGI (HS 578T breast): > 100 µM | TGI (HT29 colon): > 100 µM | TGI (IGROV1 ovarian): > 100 µM | TGI (K-562 leukemia): > 100 µM | TGI (KM12 colon): > 100 µM | TGI (LOX IMVI melanoma): > 100 µM | TGI (M14 melanoma): > 100 µM | TGI (MALME-3M melanoma): > 100 µM | TGI (MCF7 breast): > 100 µM | TGI (MDA-MB-231 breast): > 100 µM | TGI (MDA-MB-435): > 100 µM | TGI (MDA-N): > 100 µM | TGI (MOLT-4 leukemia): > 100 µM | TGI (NCI-H226 lung): > 100 µM | TGI (NCI-H23 lung): > 100 µM | TGI (NCI-H460 lung): > 100 µM | TGI (NCI-H522 lung): > 100 µM | TGI (NCI/ADR-RES ovarian): > 100 µM | TGI (OVCAR-3 ovarian): > 100 µM | TGI (OVCAR-4 ovarian): > 100 µM | TGI (OVCAR-5 ovarian): > 100 µM | TGI (OVCAR-8 ovarian): > 100 µM | TGI (PC-3 prostate): > 100 µM | TGI (RPMI-8226 leukemia): > 100 µM | TGI (RXF 393 renal): > 100 µM | TGI (SF-268 CNS): > 100 µM | TGI (SF-295 CNS): > 100 µM | TGI (SF-539 CNS): > 100 µM | TGI (SK-MEL-2 melanoma): > 86.5 µM | TGI (SK-MEL-28 melanoma): > 100 µM | TGI (SK-MEL-5 melanoma): > 100 µM | TGI (SK-OV-3 ovarian): > 100 µM | TGI (SN12C renal): > 100 µM | TGI (SNB-19 CNS): > 100 µM | TGI (SNB-75 CNS): > 100 µM | TGI (SR leukemia): > 100 µM | TGI (SW-620 colon): > 100 µM | TGI (T-47D breast): > 100 µM | TGI (TK-10 renal): > 100 µM | TGI (U251 CNS): > 100 µM | TGI (UACC-257 melanoma): > 100 µM | TGI (UACC-62 melanoma): > 100 µM | TGI (UO-31 renal): > 100 µM

CNS(=O)(=O)c1ccccc1C(=N)c1ccccc1
TGI (786-0 renal): > 100 µM | TGI (A498 renal): > 100 µM | TGI (A549 NSCLC): > 100 µM | TGI (ACHN renal): > 100 µM | TGI (BT-549 breast): > 100 µM | TGI (CAKI-1 renal): > 100 µM | TGI (CCRF-CEM leukemia): > 100 µM | TGI (COLO 205 colon): > 100 µM | TGI (DU-145 prostate): > 100 µM | TGI (EKVX NSCLC): > 100 µM | TGI (HCT-116 colon): > 100 µM | TGI (HCT-15 colon): > 100 µM | TGI (HL-60(TB) leukemia): > 100 µM | TGI (HOP-62 NSCLC): > 100 µM | TGI (HOP-92 NSCLC): > 100 µM | TGI (HS 578T breast): > 100 µM | TGI (HT29 colon): > 100 µM | TGI (IGROV1 ovarian): > 100 µM | TGI (K-562 leukemia): > 100 µM | TGI (KM12 colon): > 100 µM | TGI (LOX IMVI melanoma): > 100 µM | TGI (M14 melanoma): > 100 µM | TGI (MALME-3M melanoma): > 100 µM | TGI (MCF7 breast): > 100 µM | TGI (MDA-MB-231 breast): > 100 µM | TGI (MDA-MB-435): > 100 µM | TGI (MDA-N): > 100 µM | TGI (MOLT-4 leukemia): > 100 µM | TGI (NCI-H226 lung): > 100 µM | TGI (NCI-H23 lung): > 100 µM | TGI (NCI-H460 lung): > 100 µM | TGI (NCI-H522 lung): > 100 µM | TGI (NCI/ADR-RES ovarian): > 100 µM | TGI (OVCAR-3 ovarian): > 100 µM | TGI (OVCAR-4 ovarian): > 100 µM | TGI (OVCAR-5 ovarian): > 100 µM | TGI (OVCAR-8 ovarian): > 100 µM | TGI (PC-3 prostate): > 100 µM | TGI (RPMI-8226 leukemia): > 100 µM | TGI (RXF 393 renal): > 100 µM | TGI (SF-268 CNS): > 100 µM | TGI (SF-295 CNS): > 100 µM | TGI (SF-539 CNS): > 100 µM | TGI (SK-MEL-2 melanoma): > 100 µM | TGI (SK-MEL-28 melanoma): > 100 µM | TGI (SK-MEL-5 melanoma): > 100 µM | TGI (SK-OV-3 ovarian): > 100 µM | TGI (SN12C renal): > 100 µM | TGI (SNB-19 CNS): > 100 µM | TGI (SNB-75 CNS): > 100 µM | TGI (SR leukemia): > 100 µM | TGI (SW-620 colon): > 100 µM | TGI (T-47D breast): > 100 µM | TGI (TK-10 renal): > 100 µM | TGI (U251 CNS): > 100 µM | TGI (UACC-62 melanoma): > 100 µM | TGI (UO-31 renal): > 100 µM
